Reference: article PMC7374097, “UGT2B17 modifies drug response in chronic lymphocytic leukaemia” (British Journal of Cancer, 2020)
Where two headings read alike, the source gives them in different places.

Key:
[1] = tested on: MEC1 cells; test: MTS cell viability assay, MEC1 cells (control or overexpressing UGT2B17); type: cell-based, human; conditions: for IC50: Homo sapiens, 72 h; for Fold over control: MEC1, IC50 2B17 / CTRL
Experimental: (§1) Cells were plated at 1 × 10^4 cells/well (MEC1) or at 5 × 10^4 cells/well (JVM2) in 96-well U-bottom tissue culture plates (BD Bioscience, Mississauga, ON, Canada). Drugs were added at time of plating at concentrations ranging from 1 nM to 100 µM (7–9 concentrations per drug), depending on the drug and based on cell viability. MTS cell viability assays (Aqueous One assay, Promega, Madison, WI, USA) were conducted 72 h after treatment initiation according to the manufacturer’s instructions. […] Control cells were treated with corresponding vehicle concentration. […] IC50 were calculated by fitting variable slope non-linear curves to normalised response data from drug treatments using GraphPad Prism v5 (GraphPad Software Inc., La Jolla, CA, USA). Assays were replicated at least three times in triplicates.

[2] = tested on: JVM2 cells; test: MTS cell viability assay, JVM2 cells (control or overexpressing UGT2B17); type: cell-based, human; conditions: for IC50: Homo sapiens, JVM-2, 72 h; for Fold over control: JVM2, IC50 2B17 / CTRL
Experimental: as §1

[3] = tested on: human liver microsomes; test: Glucuronidation assay with human liver microsomes; conditions: for Glucuronide (G) products formed: pooled human liver microsomes, MS
Experimental: (§2) Electrospray ionisation was performed in the positive ion mode.

[4] = tested on: individual human UGT isoforms; test: Screening of tissues and individual recombinant UGT1A (n = 8) and UGT2B (n = 6) enzymes by quantitative MS; conditions: liver, kidney, intestine and recombinant UGTs
Experimental: as §2

[5] = tested on: JVM2 cells; conditions: JVM2, Annexin V/PI, 72 h
Experimental: (§3) Cells plated in 96-well plates at 2 × 10^4 cells/well (MEC1) or 3 × 10^4 cells/well (JVM2) were exposed to varying drug concentrations as above for 72 h. Cells were washed, labelled for 12 min with Annexin V (1:200) and PI (2 µg/ml) in Annexin V binding buffer, then immediately analysed by flow cytometry on a FACSCelesta equipped with a high throughput sampler (BD Bioscience). Annexin V labelling assays were replicated at least twice in duplicates.
(§4) MEC1 (a, c, e) and JVM2 (b, d, f) cells expressing low or high UGT2B17 levels were exposed to
(§5) increasing drug concentrations. Cells were stained with Annexin V (AnV) and propidium iodide (PI) 72
(§6) hours after treatment initiation. The AV-/PI- cells constituted the viable cell population.

[6] = tested on: MEC1 cells; conditions: MEC1, Annexin V/PI, 72 h
Experimental: as §3, §4, §5, §6

[7] = tested on: UGT2B17 expression; test: UGT2B17 mRNA by RT-qPCR in drug-treated cell models; type: cell-based, human; conditions: MEC1, JVM2 and EHEB cells, drug treatment; P < 0.01
[8] = tested on: fludarabine glucuronidation; test: Fludarabine glucuronidation in drug-treated cell models; type: cell-based, human
Experimental: as §2

[9] = Glucuronidation assay with human liver microsomes; conditions: human, human liver microsomes, pH 7.5
Experimental: as §2

[10] = target: T1, human liver microsomes (Homo sapiens, UniProt P22310); test: Glucuronidation assay with human liver microsomes; conditions: UGT1A4 inhibitory constant Ki, Liver, inhibitor hecogenin
T1 sequence (P22310 29-534): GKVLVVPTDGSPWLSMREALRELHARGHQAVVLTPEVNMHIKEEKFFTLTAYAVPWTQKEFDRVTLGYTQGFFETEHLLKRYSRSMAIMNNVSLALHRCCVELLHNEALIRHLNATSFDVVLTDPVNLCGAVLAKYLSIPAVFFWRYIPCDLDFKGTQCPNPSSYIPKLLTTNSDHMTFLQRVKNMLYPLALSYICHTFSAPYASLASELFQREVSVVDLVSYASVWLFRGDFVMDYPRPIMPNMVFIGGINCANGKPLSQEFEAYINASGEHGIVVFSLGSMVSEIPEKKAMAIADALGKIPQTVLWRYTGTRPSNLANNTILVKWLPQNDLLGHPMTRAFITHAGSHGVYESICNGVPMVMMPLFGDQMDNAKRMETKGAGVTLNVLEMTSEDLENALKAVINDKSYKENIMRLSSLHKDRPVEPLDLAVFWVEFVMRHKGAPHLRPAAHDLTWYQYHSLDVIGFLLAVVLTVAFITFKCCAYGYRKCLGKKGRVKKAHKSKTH
Experimental: as §2

[11] = target: T2, UGT1A4 (Homo sapiens, UniProt P22310); test: Glucuronidation assay with UGT1A4 supersomes; conditions: for Ki: UGT1A4 inhibitory constant Ki, UGT1A4, inhibitor hecogenin
T2 sequence (P22310 29-534): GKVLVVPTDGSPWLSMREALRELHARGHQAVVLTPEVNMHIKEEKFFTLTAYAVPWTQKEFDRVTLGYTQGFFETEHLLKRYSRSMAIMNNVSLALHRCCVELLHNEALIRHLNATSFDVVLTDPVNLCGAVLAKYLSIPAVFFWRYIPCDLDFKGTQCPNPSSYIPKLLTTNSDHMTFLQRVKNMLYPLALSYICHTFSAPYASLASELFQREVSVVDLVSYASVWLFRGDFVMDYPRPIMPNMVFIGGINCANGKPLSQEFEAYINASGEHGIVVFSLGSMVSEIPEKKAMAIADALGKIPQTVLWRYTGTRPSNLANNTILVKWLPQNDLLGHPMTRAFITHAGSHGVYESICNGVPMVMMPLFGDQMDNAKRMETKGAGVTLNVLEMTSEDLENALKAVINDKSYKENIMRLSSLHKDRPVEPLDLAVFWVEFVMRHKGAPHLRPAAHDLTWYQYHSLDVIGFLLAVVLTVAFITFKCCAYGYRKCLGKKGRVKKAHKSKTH
Experimental: In the absence of commercially available UGT2B11 supersomes, microsomal proteins derived from HEK293 expressing the recombinant UGT2B11 enzyme were used. […] Samples were then stopped by adding 100 µL cold methanol, centrifuged at 16,000×g for 10 min and supernatants analysed by mass spectrometry. The following negative controls were included for each analysis: reaction assays without substrate, without the microsomal fraction and without substrate and microsomal fraction.

[12] = substrate: Nc1nc(F)nc2c1ncn2[C@@H]1O[C@H](CO)[C@@H](O)[C@@H]1O; test: cells, lysate or membranes named; conditions: predominant drug-G, pH 7.5, 37.0 °C
[13] = MEC1 cells overexpressing UGT2B17, MTS, read-out: 2B17 IC50
[14] = MEC1 control cells, MTS, read-out: CTRL IC50
[15] = JVM2 cells overexpressing UGT2B17, MTS, read-out: 2B17 IC50
[16] = JVM2 control cells, MTS, read-out: CTRL IC50

Molecule | IC50 [1, 13] | IC50 [1, 14] | Fold over control [1] | IC50 [2, 15] | IC50 [2, 16] | Fold over control [2] | Glucuronide (G) products formed [3] | further results
Cn1c(CCCC(=O)O)nc2cc(N(CCCl)CCCl)ccc21 [Bendamustine, bendamustine] | 76 µM | 60.1 µM | 1.27 | 62.8 µM | 54.2 µM | 1.16 | at least one G product | –
O=C(O)CCCc1ccc(N(CCCl)CCCl)cc1 [Chlorambucil, chlorambucil] | 12.3 µM | 7.99 µM | 1.55 | 8.64 µM | 10.4 µM | 0.83 | at least one G product | UGT enzyme(s) involved in glucuronidation of the drug [4]: UGT2B17 plays a role in the inactivation
Nc1nc(F)nc2c1ncn2[C@@H]1O[C@H](CO)[C@@H](O)[C@@H]1O [Fludarabine, fludarabine] | 58.8 µM | 29.3 µM | 2.01 | 15.1 µM | 9.08 µM | 1.66 | two glucuronides | Concentration at which cytotoxic [5]: > 5 µM; Cytotoxicity at clinically relevant concentrations [5]: no cytotoxicity; Concentration at which cytotoxicity was observed [6]: > 40 µM; Cytotoxicity at clinically relevant concentrations [6]: no cytotoxicity; Induction of UGT2B17 expression [7]: significantly induced; Fludarabine glucuronidation following drug treatment [8]: increased; Km at 6 h [9]: 878 µM; Velocity Vmax ([3]; Liver, predominant drug-G, velocity at highest substrate concentration): 0.12 pmol/min/mg protein; UGT enzyme(s) involved in glucuronidation of the drug [4]: UGT2B17 and UGT1A4 were the main conjugating enzymes
C[C@@H]1CC[C@@]2(OC1)O[C@H]1C[C@H]3[C@@H]4CC[C@H]5C[C@@H](O)CC[C@]5(C)[C@H]4CC(=O)[C@]3(C)[C@H]1[C@@H]2C [Hecogenin, hecogenin] | – | – | – | – | – | – | – | Ki ([10]; substrate ibrutinib): 5.8 µM; Ki ([10]; substrate idelalisib): 0.9 µM; Formation of ibrutinib and idelalisib G1 and G2 abolished ([11]; UGT1A4 and livers, in the presence of hecogenin): ~90%; Ki ([11]; substrate ibrutinib): 2.8 µM; Ki ([11]; substrate idelalisib): 0.6 µM
C=CC(=O)N1CCC[C@@H](n2nc(-c3ccc(Oc4ccccc4)cc3)c3c(N)ncnc32)C1 [Ibrutinib, ibrutinib] | 4.13 µM | 0.99 µM | – | 8.95 µM | 3.64 µM | – | – | –
CC[C@H](Nc1ncnc2[nH]cnc12)c1nc2cccc(F)c2c(=O)n1-c1ccccc1 [Idelalisib, idelalisib] | 7.4 µM | 1.73 µM | – | 2.95 µM | 1.79 µM | – | – | Cytotoxicity at clinically relevant concentrations [5]: low and no cytotoxicity; Cytotoxicity at clinically relevant concentrations [6]: low and no cytotoxicity; Fludarabine glucuronidation following drug treatment [8]: increased
CC1(C)CCC(CN2CCN(c3ccc(C(=O)NS(=O)(=O)c4ccc(NCC5CCOCC5)c([N+](=O)[O-])c4)c(Oc4cnc5[nH]ccc5c4)c3)CC2)=C(c2ccc(Cl)cc2)C1 [Venetoclax, venetoclax] | 4.16 µM | 2.22 µM | 1.87 | 2.94 µM | 4.06 µM | 0.72 | at least one G product | –
CC#CC(=O)N1CCC[C@H]1c1nc(-c2ccc(C(=O)Nc3ccccn3)cc2)c2c(N)nccn12 [acalibrutinib, acalabrutinib] | – | – | – | – | – | – | at least one G product | –
CCS(=O)(=O)N1CCN(c2ccc(Nc3ncc(C(N)=O)c(NC4CC4)n3)cc2)CC1 [cerdulatinib] | – | – | – | – | – | – | at least one G product | UGT enzyme(s) involved in glucuronidation of the drug [4]: UGT2B17 plays a role in the inactivation
C[C@H](Nc1ncnc2[nH]cnc12)c1cc2cccc(Cl)c2c(=O)n1-c1ccccc1 [duvelisib] | – | – | – | – | – | – | at least one G product | –
UGT1A4 (Homo sapiens) (protein) GKVLVVPTDGSPWLSMREALRELHARGHQAVVLTPEVNMHIKEEKFFTLTAYAVPWTQKEFDRVTLGYTQGFFETEHLLKRYSRSMAIMNNVSLALHRCCVELLHNEALIRHLNATSFDVVLTDPVNLCGAVLAKYLSIPAVFFWRYIPCDLDFKGTQCPNPSSYIPKLLTTNSDHMTFLQRVKNMLYPLALSYICHTFSAPYASLASELFQREVSVVDLVSYASVWLFRGDFVMDYPRPIMPNMVFIGGINCANGKPLSQEFEAYINASGEHGIVVFSLGSMVSEIPEKKAMAIADALGKIPQTVLWRYTGTRPSNLANNTILVKWLPQNDLLGHPMTRAFITHAGSHGVYESICNGVPMVMMPLFGDQMDNAKRMETKGAGVTLNVLEMTSEDLENALKAVINDKSYKENIMRLSSLHKDRPVEPLDLAVFWVEFVMRHKGAPHLRPAAHDLTWYQYHSLDVIGFLLAVVLTVAFITFKCCAYGYRKCLGKKGRVKKAHKSKTH | – | – | – | – | – | – | – | Km ([12]; other: UGT1A4): 1020 µM; Vmax ([12]; other: UGT1A4): 0.05 pmol/min/mg protein
UGT2B17 (Homo sapiens) (protein) GKVLVWPTEYSHWINMKTILEELVQRGHEVIVLTSSASILVNASKSSAIKLEVYPTSLTKNDLEDFFMKMFDRWTYSISKNTFWSYFSQLQELCWEYSDYNIKLCEDAVLNKKLMRKLQESKFDVLLADAVNPCGELLAELLNIPFLYSLRFSVGYTVEKNGGGFLFPPSYVPVVMSELSDQMIFMERIKNMIYMLYFDFWFQAYDLKKWDQFYSEVLGRPTTLFETMGKAEMWLIRTYWDFEFPRPFLPNVDFVGGLHCKPAKPLPKEMEEFVQSSGENGIVVFSLGSMISNMSEESANMIASALAQIPQKVLWRFDGKKPNTLGSNTRLYKWLPQNDLLGHPKTKAFITHGGTNGIYEAIYHGIPMVGIPLFADQHDNIAHMKAKGAALSVDIRTMSSRDLLNALKSVINDPIYKENIMKLSRIHHDQPVKPLDRAVFWIEFVMRHKGAKHLRVAAHNLTWIQYHSLDVIAFLLACVATMIFMITKCCLFCFRKLAKTGKKKKRD | – | – | – | – | – | – | – | Km ([12]; other: UGT2B17): 949 µM; Vmax ([12]; other: UGT2B17): 0.01 pmol/min/mg protein
